# Experimental data taken from article PMC10053710, “Influence of Lipidation Pattern of the KR12 Fragment of Peptide LL-37 on Its Antibacterial and Hemolytic Activities” (International Journal of Molecular Sciences, 2023).
# Where a SMILES comes first, the peptide text is derived from it. Where no end group is shown, it is not given here. The star is where a group is joined. Octanoyl = CCCCCCCC(=O)*
# Tests used:
# [1] = tested on: reference strains of Staphylococcus aureus; assay: MIC over the five reference strains of S. aureus (geometric mean, range, selectivity); format: cell-based; details: MIC values of Table 3
# Method: Selectivity indexes were calculated based on the MHC5 and geometric mean (GM) of MIC values against S. aureus strains.
# Tests of the antibacterial activity were carried out as we just described. Briefly, for assays, the following strains of ESKAPE bacteria were chosen: Acinetobacter baumannii ATCC BAA-1605, Enterococcus faecium ATCC 700221, Klebsiella aerogenes ATCC 13048 (formerly Enterobacter aerogenes), Klebsiella pneumoniae ATCC 700603, and Pseudomonas aeruginosa ATCC 9027. Moreover, the reference strains of Staphylococcus aureus were used: S. aureus ATCC 25923, S. aureus ATCC 6538, S. aureus ATCC 33591 (MRSA), S. aureus ATCC 9144, and S. aureus ATCC 12598. Before experiments, all the strains were stored at −80 °C in Roti®-Store cryo vials (Carl Roth GmbH, Karlsruhe, Germany). To evaluate the activity of the compounds, bacteria were transferred into fresh Mueller–Hinton medium (Becton Dickinson, Warszawa, Poland) and incubated for 24 h at 37 °C. In the next step, bacterial inoculums were seeded on Mueller–Hinton agar plates (BioMaxima SA, Lublin, Poland) and incubated again for 24 h. The MIC values were determined using the broth microdilution method according to the Clinical and Laboratory Standards Institute Protocol. […] The results were read after incubation for 18 h at 37 °C. […]
# [2] = RP-HPLC adjusted retention time as measure of hydrophobicity; format: physicochemical; details: chromatographic, Phenomenex Gemini-NX C18 4.6 × 150 mm, linear gradient 10–100% B (0.1% TFA in ACN) in A (0.1% aqueous TFA) over 10 min, 25 °C, 0.5 mL/min, UV 214 nm; used as hydrophobicity measure
# Excerpt: The identity of the purified peptides was confirmed using electrospray ionization mass spectrometry (ESI-MS) in positive ion mode and the results are shown in Table S1 (Supplementary Materials).
# The conjugation of KR12-NH2 with aliphatic and aromatic acids affords more hydrophobic compounds than the parent molecule, but it depends on the modified amino group involved. The conjugation of C8 to N^α amino group of the N-terminal amino acid gives a more distinct increase in hydrophobicity than that of C8 in the sidechain of lysine residues (i.e., II vs. III; IV vs. V). […] Moreover, in the acidic conditions of the mobile phase (0.1% TFA; pH 2,) both amino groups are protonated. Hypothetically, the acylation of the N^α-amino group disrupts the helix macrodipole and eliminates excessive positive charge. The dipole moment and positive charge can obviously contribute to peptide hydrophilicity. This phenomenon applies exclusively to the N^α-amino group, but not so much to N^ε. […]
# Finally, the peptides were purified with solid-phase extraction (SPE) on Isolute ^TM SPE columns (flash, C18, 25 mL). The eluates were fractionated, and the purity of the peptides was determined on a Varian ProStar HPLC system controlled by a Galaxie Chromatography Data System with a Phenomenex Gemini-NX C18 column (4.6 × 150 mm, 110 Å pore size, 5 µm particle size). […]
# [3] = tested on: Pseudomonas aeruginosa ATCC 9027; format: cell-based; details: ATCC 9027, 18 h
# How it was run: (§1)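 MICs were determined by CLSI broth microdilution in Mueller–Hinton broth, with inocula of 0.5 × 10^5 CFU/mL exposed to peptides at 1–512 µg/mL. After 18 h at 37 °C, the MIC was taken as the lowest concentration inhibiting visible growth; triplicate runs with growth and sterility controls.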
# [4] = tested on: Klebsiella pneumoniae ATCC 700603; format: cell-based; details: ATCC 700603, 18 h
# How it was run: as §1
# [5] = tested on: Enterococcus faecium ATCC 700221; format: cell-based; details: ATCC 700221, 18 h
# How it was run: as §1
# [6] = tested on: Klebsiella aerogenes ATCC 13048; format: cell-based; details: ATCC 13048, 18 h
# How it was run: as §1
# [7] = 18 h
# S. aureus ATCC 6538 = format: cell-based, Staphylococcus aureus; details: ATCC 6538, 18 h
# How it was run: as §1
# [8] = tested on: S. aureus ATCC 33591 (MRSA); format: cell-based, Staphylococcus aureus; details: ATCC 33591, 18 h
# How it was run: as §1
# S. aureus ATCC 12598 = format: cell-based, Staphylococcus aureus; details: ATCC 12598, 18 h
# How it was run: as §1
# S. aureus ATCC 25923 = format: cell-based, Staphylococcus aureus; details: ATCC 25923, 18 h
# How it was run: as §1
# S. aureus ATCC 9144 = format: cell-based, Staphylococcus aureus; details: ATCC 9144, 18 h
# How it was run: as §1
# [9] = tested on: human red blood cells (hRBCs); assay: Hemolysis assay; details: 4% (v/v) erythrocytes in PBS, peptides 1–512 µg/mL, 1 h at 37 °C, hemoglobin at 540 nm, 100% = 1% Triton-X 100; ≥ means less than 5% hemolysis up to 512 µg/mL
# Method: To facilitate a comparison of hemolytic activity between the analogs, MHC5 values were determined. MHC5 is the minimum hemolytic concentration of the compounds that caused the 5% hemolysis of hRBCs.
# Briefly, the fresh hRBCs with EDTA as anticoagulant were rinsed three times with PBS through centrifugation at 800× g for 10 min and resuspended in PBS. The serial dilution of peptides (1–512 µg/mL) was prepared in PBS on 96-well plates. Then, the stock RBCs solution was added to the plates to reach a final volume of 100 µL with a 4% concentration of erythrocytes (v/v). The control wells for 0 (RBCs in PBS) and 100% (RBCs in 1% Triton-X 100) hemolysis were also prepared. Then, the plates were incubated for 1 h at 37 °C and centrifuged at 800× g for 10 min at 4 °C (Sorvall ST 16R Centrifuge, Thermo Scientific, Waltham, MA, USA). After centrifugation, the supernatant was carefully transferred to new microtiter plates and the release of hemoglobin was measured at 540 nm (Multiskan™ GO Microplate Spectrophotometer, Thermo Scientific, Waltham, MA, USA). The percentage of hemolysis was calculated based on wells with 100% hemolysis.
Compound,GM (geometric mean of the MIC values against S. aureus) [1],"HPLC tR (adjusted retention time, t'R) [2]",MIC P. aeruginosa [3],MIC K. pneumoniae [4],MIC E. faecium [5],MIC K. aerogenes [6],MIC A. baumannii [7],MIC S. aureus 6538 (S. aureus ATCC 6538),MIC S. aureus 33591 [8],MIC S. aureus 12598 (S. aureus ATCC 12598),MIC S. aureus 25923 (S. aureus ATCC 25923),MIC S. aureus 9144 (S. aureus ATCC 9144),MHC5 (minimum hemolytic concentration causing 5% hemolysis of hRBCs) [9]
"CCCCCCCC(=O)NCCCC[C@H](NC(=O)[C@H](CCCNC(=N)N)NC(=O)[C@@H](NC(=O)[C@@H](NC(=O)[C@H](CCC(N)=O)NC(=O)[C@H](CCCNC(=N)N)NC(=O)[C@@H](NC(=O)[C@H](CCCCN)NC(=O)[C@H](CC(=O)O)NC(=O)[C@H](Cc1ccccc1)NC(=O)[C@H](CC(C)C)NC(=O)[C@@H](N)CCCNC(=N)N)[C@@H](C)CC)C(C)C)[C@@H](C)CC)C(N)=O [XI, retro-KR12-C8^ε-NH2] (H-RLFDKIRQVIRK(Octanoyl)-NH2)",168.9,5.05 min,128 µg/mL,512 µg/mL,32 µg/mL,512 µg/mL,64 µg/mL,16 µg/mL,512 µg/mL,512 µg/mL,128 µg/mL,256 µg/mL,–
"KRIVQRIKDFLR-NH2 [I, KR12-NH2]",–,–,128 µg/mL,>512 µg/mL,128 µg/mL,>512 µg/mL,256 µg/mL,512 µg/mL,>512 µg/mL,>512 µg/mL,>512 µg/mL,>512 µg/mL,≥512 µg/mL
